From patent US5622725A, “Wound disinfection and repair” (Alcide Corporation, priority 1996, dated 1997)

Test system: Staphylococcus epidermidis biofilms
Assay: Sterilization of S. epidermidis biofilms, minimal exposure time at 22° C. (supravital dye, confirmed by culture)
Type: cell-based
Description: This example compares and contrasts the cidal effectiveness of compositions of the invention with other disinfectants and antibiotics against Staphylococcus epidermidis biofilms, which are frequently observed on the surface of C.A.P.D. peritoneal catheters even in the absence of peritonitis or exit site infections.
A strain of S. epidermidis with characteristic abundant slime production, and derived from a human source, is used to prepare the biofilms. The isolate is fully sensitive in the fluid phase to all commonly used antibiotics as assayed using routine test methods. Aliquots of the bacteria are frozen at -70° C. in 10% glycerol broth or propagated on 5% defibrinated horse blood agar. Standardized biofilms are formed on soda glass microscope slides or slides coated with Silastic® (the basic material of indwelling catheters; see Cecil's, cited above, on page 542), placed in Petri dishes containing 20 ml of tryptone soya broth (Oxoid Ltd., England), seeded with 10^4 cfu S. epidermidis and incubated for 18 hours at 37° C. Reproducible uniform and confluent S. epidermidis biofilms of minimal density are formed.
Antibiotic activity against S. epidermidis biofilms are determined using a supravital dye which acts as an electron acceptor in coupled oxidative systems in biofilm bacteria. The method allows the bacteria to be examined undisturbed within the biofilm matrix in situ. Briefly stated, the biofilms are exposed to antibiotic solutions and incubated at […] for varying periods of time. Positive (viable, 1% peptone water) and negative (sterilized, 4% formol-peptone) controls are included in all experiments. After a designated exposure at 22° C. for varying periods of time between 15 seconds to 6 hours, the biofilms are rinsed twice in sterile water and allowed to drain. They are then placed in a flat agar medium incorporating substantive dyes and incubated at 37° C. for 4 hours, then 24 hours. Viability is assessed visually by a change in dye color and confirmed after 24 hours by mechanically scraping and subsequently culturing the biofilms. Sterilization is indicated by the absence of color changes and confirmed by culture of both intact and mechanically fragmented biofilms. Inhibition of growth is indicated by a lack of color change after a 4-hour incubation and confirmed by a positive color change by 24 hours.

SMILES	Exposure Time (22° C.) for Film Sterilization (100 μg/ml) [h]	contact time relative to 50 ppm ClO2 to destroy the organisms in the biofilm (3% concentration, vs 50 ppm ClO2) [times]	Exposure Time (22° C.) for Film Sterilization [h]
CO[C@H]1/C=C/O[C@@]2(C)Oc3c(C)c(O)c4c(O)c(c(/C=N/N5CCN(C)CC5)c(O)c4c3C2=O)NC(=O)/C(C)=C\C=C\[C@H](C)[C@H](O)[C@@H](C)[C@@H](O)[C@@H](C)[C@H](OC(C)=O)[C@@H]1C [rifampin]	6	–	–
OO [Hydrogen Peroxide (3%), Hydrogen Peroxide]	–	1200	0.167
